{"source": "ChEMBL document CHEMBL1201862", "about": "“PubChem BioAssay data set” (2004)", "key": {"P388": {"test_system": "P388", "assay": "cells", "format": "functional", "settings": "Mus musculus"}, "P388/ADR": {"test_system": "P388/ADR", "assay": "cells", "format": "functional", "settings": "Mus musculus"}, "[1]": {"assay": "THP-1 cell cytotoxicity, dose response, cytotoxicity control for Vif-APOBEC3G degradation inhibitor project, THP-1 cells (AID 1117359)", "format": "functional", "settings": "Human immunodeficiency virus 1, THP-1"}, "Large T antigen": {"biological_target": "Large T antigen (Simian virus 40, UniProt P03070)", "sequence (P03070 whole entry)": "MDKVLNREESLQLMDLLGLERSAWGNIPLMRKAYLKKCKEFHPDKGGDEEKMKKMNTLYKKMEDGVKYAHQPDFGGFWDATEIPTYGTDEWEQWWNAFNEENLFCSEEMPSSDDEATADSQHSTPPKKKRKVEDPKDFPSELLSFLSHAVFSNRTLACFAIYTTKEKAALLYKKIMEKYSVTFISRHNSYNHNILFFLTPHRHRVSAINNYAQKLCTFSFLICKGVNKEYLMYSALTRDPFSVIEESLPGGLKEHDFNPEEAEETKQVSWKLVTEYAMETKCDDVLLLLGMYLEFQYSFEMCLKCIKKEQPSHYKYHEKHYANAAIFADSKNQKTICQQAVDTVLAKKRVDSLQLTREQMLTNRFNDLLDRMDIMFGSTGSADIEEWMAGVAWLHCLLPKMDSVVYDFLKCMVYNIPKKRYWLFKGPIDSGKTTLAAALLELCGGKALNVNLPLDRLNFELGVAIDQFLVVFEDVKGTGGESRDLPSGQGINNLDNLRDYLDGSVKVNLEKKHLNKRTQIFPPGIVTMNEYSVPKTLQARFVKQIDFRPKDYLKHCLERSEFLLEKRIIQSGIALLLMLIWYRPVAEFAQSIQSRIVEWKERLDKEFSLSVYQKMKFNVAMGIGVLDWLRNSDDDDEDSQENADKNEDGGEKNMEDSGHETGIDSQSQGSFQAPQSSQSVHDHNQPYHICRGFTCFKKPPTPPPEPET", "format": "functional, Betapolyomavirus macacae"}, "[2]": {"biological_target": "T1, Endoribonuclease toxin MazF (Escherichia coli K-12, UniProt P0AE70)", "T1 sequence (P0AE70 whole entry)": "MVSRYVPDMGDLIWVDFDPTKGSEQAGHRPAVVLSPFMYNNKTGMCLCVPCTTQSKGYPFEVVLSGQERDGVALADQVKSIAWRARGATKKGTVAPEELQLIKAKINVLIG", "assay": "fluorescent RNA oligo signal without MazF, dose response, counter-screen for MazEF activator project, biochemical, fluorescence, single-stranded RNase substrate (AID 588502)", "format": "functional"}, "[3]": {"biological_target": "T1, Endoribonuclease toxin MazF", "assay": "MazF toxin RNase activators, dose response, biochemical, fluorescence, single-stranded RNA substrate, uHTS hits (AID 588481)", "format": "functional"}, "[4]": {"assay": "HEK293 cell cytotoxicity, dose response, cytotoxicity control, plate reader, cherry-picked samples (AID 743446)", "format": "functional, cell-based"}, "[5]": {"assay": "LGR2 antagonists, dose response, cell-based, HEK293, CRE-luciferase reporter, cherry pick, set 2 (AID 743343);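 also: transfected cells were stimulated with diluted bursicon conditioned medium after compound addition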", "format": "functional"}, "HEK293": {"test_system": "HEK293", "assay": "inhibitors of LMP1-driven NF-kB reporter, dose response, cell-based, HEK293, luciferase, cherry-pick (AID 588343)", "format": "functional", "settings": "Homo sapiens"}, "[6]": {"assay": "MC4R antagonists, dose response, counter-screen for LGR2 antagonist project, cell-based, plate reader, cherry pick (AID 743444);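 also: transfected HEK 293 cells stimulated with alpha-MSH peptide; potency of inhibitors of the alpha-MSH evoked signal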", "format": "functional"}, "[7]": {"assay": "A549 cell cytotoxicity, dose response, cytotoxicity control, plate reader, cherry-pick, antagonist series (AID 743412)", "format": "functional, cell-based"}, "SN12K1": {"test_system": "SN12K1", "assay": "cells", "format": "functional", "settings": "Homo sapiens"}, "[8]": {"biological_target": "Peroxisome proliferator-activated receptor gamma/Nuclear receptor coactivator 3 (Homo sapiens, UniProt P37231)", "format": "functional"}, "[9]": {"biological_target": "Peroxisome proliferator-activated receptor gamma/Nuclear receptor coactivator 2 (Homo sapiens, UniProt P37231)", "sequence (P37231 whole entry)": "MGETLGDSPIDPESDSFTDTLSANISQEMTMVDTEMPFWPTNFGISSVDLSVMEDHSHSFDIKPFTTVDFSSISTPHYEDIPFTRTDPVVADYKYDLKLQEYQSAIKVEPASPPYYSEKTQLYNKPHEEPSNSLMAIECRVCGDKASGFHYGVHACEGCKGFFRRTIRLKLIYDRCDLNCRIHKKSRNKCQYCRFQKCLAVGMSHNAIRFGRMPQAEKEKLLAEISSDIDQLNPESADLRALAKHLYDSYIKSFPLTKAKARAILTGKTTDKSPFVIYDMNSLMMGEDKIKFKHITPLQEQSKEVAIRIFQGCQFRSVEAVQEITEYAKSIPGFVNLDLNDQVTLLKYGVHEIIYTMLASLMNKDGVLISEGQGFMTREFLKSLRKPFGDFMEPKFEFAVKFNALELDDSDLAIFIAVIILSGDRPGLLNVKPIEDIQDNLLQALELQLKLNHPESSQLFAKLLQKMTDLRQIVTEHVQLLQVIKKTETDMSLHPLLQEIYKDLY", "sequence (Q15596 whole entry, further chain)": "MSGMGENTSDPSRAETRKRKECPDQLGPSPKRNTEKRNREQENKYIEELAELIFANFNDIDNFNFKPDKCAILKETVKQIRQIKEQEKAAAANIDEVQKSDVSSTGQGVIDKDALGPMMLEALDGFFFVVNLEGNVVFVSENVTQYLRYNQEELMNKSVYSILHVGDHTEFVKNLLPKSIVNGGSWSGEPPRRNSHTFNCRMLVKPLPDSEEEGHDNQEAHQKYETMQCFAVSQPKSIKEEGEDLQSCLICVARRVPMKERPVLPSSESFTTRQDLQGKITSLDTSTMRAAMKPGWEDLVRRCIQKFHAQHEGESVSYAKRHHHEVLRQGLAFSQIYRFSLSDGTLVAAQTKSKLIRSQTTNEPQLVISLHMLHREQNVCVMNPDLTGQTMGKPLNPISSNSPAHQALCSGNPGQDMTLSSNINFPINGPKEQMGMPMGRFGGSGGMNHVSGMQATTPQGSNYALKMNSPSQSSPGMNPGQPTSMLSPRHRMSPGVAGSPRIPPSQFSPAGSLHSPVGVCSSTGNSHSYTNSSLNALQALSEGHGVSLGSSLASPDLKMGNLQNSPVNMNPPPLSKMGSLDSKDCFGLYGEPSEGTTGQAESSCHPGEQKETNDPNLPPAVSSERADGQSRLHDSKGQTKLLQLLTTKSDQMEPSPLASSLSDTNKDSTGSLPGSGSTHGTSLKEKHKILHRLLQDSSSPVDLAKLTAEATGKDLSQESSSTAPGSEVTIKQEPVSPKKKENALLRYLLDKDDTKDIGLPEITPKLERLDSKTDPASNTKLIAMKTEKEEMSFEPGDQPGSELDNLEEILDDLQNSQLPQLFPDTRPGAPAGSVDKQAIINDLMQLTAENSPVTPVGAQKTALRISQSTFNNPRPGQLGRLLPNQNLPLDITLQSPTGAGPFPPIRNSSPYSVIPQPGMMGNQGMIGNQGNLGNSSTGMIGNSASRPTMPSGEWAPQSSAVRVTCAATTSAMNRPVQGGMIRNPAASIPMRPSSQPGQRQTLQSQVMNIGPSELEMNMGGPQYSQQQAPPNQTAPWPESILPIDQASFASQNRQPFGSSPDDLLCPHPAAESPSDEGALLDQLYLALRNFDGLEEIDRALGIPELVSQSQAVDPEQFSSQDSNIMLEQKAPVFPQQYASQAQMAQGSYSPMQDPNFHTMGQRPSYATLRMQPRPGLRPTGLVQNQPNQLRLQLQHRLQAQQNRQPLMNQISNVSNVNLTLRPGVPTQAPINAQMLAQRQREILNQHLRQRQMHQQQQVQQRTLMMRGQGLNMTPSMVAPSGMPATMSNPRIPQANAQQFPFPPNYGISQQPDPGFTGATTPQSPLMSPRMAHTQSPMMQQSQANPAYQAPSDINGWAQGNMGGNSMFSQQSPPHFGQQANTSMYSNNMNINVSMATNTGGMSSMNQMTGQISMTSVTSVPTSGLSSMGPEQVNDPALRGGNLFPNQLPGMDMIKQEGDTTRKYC", "format": "functional"}, "[10]": {"biological_target": "Peroxisome proliferator-activated receptor gamma/Nuclear receptor coactivator 1 (Homo sapiens, UniProt P37231)", "sequence (P37231 whole entry)": "as the sequence (P37231 whole entry) above", "sequence (Q15788 whole entry, further chain)": "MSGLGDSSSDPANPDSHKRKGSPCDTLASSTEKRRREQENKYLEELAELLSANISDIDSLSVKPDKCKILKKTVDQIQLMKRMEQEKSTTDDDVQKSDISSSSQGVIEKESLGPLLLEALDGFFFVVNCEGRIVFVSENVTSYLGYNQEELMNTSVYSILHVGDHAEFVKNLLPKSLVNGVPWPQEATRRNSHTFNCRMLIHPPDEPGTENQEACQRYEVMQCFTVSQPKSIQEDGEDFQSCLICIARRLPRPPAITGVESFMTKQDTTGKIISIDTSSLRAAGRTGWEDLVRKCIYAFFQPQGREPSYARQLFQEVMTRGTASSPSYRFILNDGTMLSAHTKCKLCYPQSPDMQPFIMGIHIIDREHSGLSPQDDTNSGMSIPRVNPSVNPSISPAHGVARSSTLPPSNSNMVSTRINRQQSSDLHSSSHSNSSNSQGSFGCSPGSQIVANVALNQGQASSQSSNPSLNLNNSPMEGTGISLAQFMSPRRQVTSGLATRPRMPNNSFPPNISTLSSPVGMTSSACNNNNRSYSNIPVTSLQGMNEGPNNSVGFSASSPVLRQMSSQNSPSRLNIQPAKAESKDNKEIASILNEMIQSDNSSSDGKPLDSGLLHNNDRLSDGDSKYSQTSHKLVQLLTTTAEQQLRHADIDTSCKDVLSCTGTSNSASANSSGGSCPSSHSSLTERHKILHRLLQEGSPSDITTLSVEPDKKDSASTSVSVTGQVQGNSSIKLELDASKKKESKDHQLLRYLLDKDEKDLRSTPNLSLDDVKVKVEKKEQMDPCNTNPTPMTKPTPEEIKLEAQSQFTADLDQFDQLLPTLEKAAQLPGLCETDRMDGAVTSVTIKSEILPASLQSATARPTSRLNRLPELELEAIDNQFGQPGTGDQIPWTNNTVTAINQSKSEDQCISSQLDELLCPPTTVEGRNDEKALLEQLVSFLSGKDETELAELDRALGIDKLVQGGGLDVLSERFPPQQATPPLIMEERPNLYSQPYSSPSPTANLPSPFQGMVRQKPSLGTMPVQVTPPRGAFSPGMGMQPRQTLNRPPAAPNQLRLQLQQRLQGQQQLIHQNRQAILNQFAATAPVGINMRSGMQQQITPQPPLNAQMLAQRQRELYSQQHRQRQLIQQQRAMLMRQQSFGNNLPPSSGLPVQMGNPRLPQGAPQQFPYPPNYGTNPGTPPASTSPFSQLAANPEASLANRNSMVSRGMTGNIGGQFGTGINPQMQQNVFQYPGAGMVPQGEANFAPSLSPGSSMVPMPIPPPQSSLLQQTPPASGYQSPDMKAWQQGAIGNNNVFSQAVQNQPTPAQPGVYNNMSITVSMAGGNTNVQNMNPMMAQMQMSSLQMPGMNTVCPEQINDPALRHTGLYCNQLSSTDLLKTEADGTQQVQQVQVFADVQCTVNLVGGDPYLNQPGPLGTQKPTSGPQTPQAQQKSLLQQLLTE", "format": "functional"}, "[11]": {"assay": "HEp-2 cell cytotoxicity, dose response, cytotoxicity control for RSV inhibitor project, HTS (AID 2410)", "format": "functional", "settings": "human respiratory syncytial virus"}, "[12]": {"assay": "HepG2 cell cytotoxicity, dose response, cytotoxicity control, plate reader, cherry-pick, antagonist series (AID 743416)", "format": "functional, cell-based"}, "[13]": {"assay": "NIH-3T3 fibroblast cytotoxicity, dose response, cytotoxicity control, cell-based, fluorescence, Alamar Blue, secondary assay (AID 2327);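 also: NIH-3T3 mouse fibroblasts cultured with fluconazole at 8 µg/mL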", "format": "functional"}, "[14]": {"biological_target": "FAD-linked sulfhydryl oxidase ALR (Homo sapiens, UniProt P55789)", "sequence (P55789 whole entry)": "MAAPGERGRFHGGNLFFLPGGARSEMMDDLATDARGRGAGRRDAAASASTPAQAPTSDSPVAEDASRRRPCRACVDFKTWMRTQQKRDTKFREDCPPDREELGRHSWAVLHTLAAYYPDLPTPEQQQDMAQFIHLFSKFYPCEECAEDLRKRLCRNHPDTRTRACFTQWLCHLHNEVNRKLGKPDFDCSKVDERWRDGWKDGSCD", "assay": "inhibitors of human ALR sulfhydryl oxidase, dose response, biochemical, H2O2 detection, luminescence, cherry-pick (AID 493248)"}, "Genome polyprotein": {"biological_target": "Genome polyprotein (dengue virus type 2, UniProt P29990)", "assay": "Dengue-2 NS5 methyltransferase inhibitors, primary screen, biochemical, confirmation dose response (AID 588689)", "format": "functional"}, "Protein RecA": {"biological_target": "T2, Protein RecA (Mycobacterium tuberculosis, UniProt P9WHJ3)", "T2 sequence (P9WHJ3 whole entry)": "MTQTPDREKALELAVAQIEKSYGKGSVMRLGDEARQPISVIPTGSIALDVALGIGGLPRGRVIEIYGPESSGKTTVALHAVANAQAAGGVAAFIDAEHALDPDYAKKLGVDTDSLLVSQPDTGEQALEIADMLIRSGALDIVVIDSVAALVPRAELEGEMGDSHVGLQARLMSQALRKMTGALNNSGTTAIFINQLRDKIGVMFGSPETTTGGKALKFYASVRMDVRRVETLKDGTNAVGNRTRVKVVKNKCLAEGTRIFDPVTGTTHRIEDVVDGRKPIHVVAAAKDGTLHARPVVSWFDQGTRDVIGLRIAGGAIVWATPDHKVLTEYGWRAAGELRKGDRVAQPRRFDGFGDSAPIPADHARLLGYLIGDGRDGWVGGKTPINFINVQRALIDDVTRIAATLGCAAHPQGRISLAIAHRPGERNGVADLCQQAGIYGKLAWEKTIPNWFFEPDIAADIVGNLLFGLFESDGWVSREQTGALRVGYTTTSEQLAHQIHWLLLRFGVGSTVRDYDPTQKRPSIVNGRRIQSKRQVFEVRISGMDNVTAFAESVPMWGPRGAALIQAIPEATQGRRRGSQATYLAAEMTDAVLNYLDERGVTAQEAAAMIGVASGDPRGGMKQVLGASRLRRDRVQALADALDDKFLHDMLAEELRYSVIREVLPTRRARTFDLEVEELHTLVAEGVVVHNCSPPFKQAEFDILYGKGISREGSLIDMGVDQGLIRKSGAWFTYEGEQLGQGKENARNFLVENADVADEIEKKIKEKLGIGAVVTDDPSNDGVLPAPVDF", "assay": "Fluorescence Cell-Free Homogeneous Dose Retest to Identify Inhibitors of RecA-Intein Splicing Activity. [Related pubchem assays (depositor defined):AID2097, AID2223, AID489010, AID492950]", "format": "functional"}, "[15]": {"biological_target": "T3, Replicative DNA helicase DnaB (Mycobacterium tuberculosis, UniProt P9WMR3)", "T3 sequence (P9WMR3 whole entry)": "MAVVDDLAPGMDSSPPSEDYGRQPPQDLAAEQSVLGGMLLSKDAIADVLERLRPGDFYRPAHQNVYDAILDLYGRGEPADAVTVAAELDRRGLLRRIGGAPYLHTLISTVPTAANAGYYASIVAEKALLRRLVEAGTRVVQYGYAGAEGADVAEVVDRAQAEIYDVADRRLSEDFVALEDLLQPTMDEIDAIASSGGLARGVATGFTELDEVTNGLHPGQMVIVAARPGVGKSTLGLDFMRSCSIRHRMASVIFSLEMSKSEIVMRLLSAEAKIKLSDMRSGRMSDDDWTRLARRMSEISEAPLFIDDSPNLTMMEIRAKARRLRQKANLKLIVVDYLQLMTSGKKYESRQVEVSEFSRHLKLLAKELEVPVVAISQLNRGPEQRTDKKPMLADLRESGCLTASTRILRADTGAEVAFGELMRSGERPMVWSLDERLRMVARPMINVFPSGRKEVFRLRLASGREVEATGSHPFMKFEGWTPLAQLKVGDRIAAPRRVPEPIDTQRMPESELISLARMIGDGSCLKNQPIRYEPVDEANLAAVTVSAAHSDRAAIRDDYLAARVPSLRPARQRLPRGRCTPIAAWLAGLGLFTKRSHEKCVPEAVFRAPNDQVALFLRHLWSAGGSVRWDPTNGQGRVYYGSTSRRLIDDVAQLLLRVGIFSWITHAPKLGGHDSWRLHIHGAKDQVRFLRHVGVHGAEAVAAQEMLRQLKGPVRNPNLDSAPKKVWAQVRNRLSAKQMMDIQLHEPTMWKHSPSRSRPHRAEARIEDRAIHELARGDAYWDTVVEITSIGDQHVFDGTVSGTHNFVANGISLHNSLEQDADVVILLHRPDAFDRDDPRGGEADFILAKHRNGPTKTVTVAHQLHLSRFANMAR", "assay": "DnaB intein splicing inhibitors, dose response, biochemical, cell-free fluorescence (AID 449749)", "format": "functional"}}, "note": "Activity calls are given as the source filed them.", "data": [{"smiles": "O=C1C=CN(C2OC(CO)C(O)C2O)C(=O)C1", "note": "(configuration not stated)", "values": [{"measurement": "GI50", "setting": "P388", "result": "0.718 µM (active)"}, {"measurement": "GI50", "setting": "P388/ADR", "result": "0.843 µM (active)"}]}, {"smiles": "CCCn1c(NC(=O)c2ccco2)nc2ccccc21", "values": [{"measurement": "CC50", "setting": "[1]", "result": "> 40 µM (active)"}]}, {"smiles": "CCn1c(/C=C/c2ccc(O)c(O)c2)nc2ccccc2c1=O", "values": [{"measurement": "IC50", "setting": "Large T antigen", "result": "35.6 µM (active)"}, {"measurement": "EC50", "setting": "[2]", "result": "88.4 µM (inactive)"}, {"measurement": "EC50", "setting": "[3]", "result": "> 99 µM (inactive)"}]}, {"smiles": "Cc1cc(-c2ccccc2)c2c3c(c(-c4ccccc4)n2n1)c(=O)n(C)c(=O)n3C", "values": [{"measurement": "EC50", "setting": "[2]", "result": "> 99 µM (inactive)"}, {"measurement": "EC50", "setting": "[3]", "result": "> 99 µM (inactive)"}]}, {"smiles": "Cc1csc(NC(=O)c2ccc(N3CCCC3=O)cc2)n1", "values": [{"measurement": "AC50", "setting": "[4]", "result": "> 52 µM (inactive)"}, {"measurement": "AC50", "setting": "[5]", "result": "2.05 µM (active)"}, {"measurement": "AC50", "setting": "HEK293", "result": "1.52 µM (active)"}, {"measurement": "AC50", "setting": "[6]", "result": "1.93 µM (active)"}, {"measurement": "AC50", "setting": "[7]", "result": "> 52 µM (inactive)"}]}, {"smiles": "CN(C)CCNC(=O)c1cccc2ccc(-c3ccc(Br)cc3)nc12", "values": [{"measurement": "GI50", "setting": "SN12K1", "result": "0.895 µM (active)"}, {"measurement": "GI50", "setting": "P388", "result": "0.374 µM (active)"}, {"measurement": "GI50", "setting": "P388/ADR", "result": "0.512 µM (active)"}]}, {"smiles": "Cc1nn(-c2ccccn2)c2c1-c1nc(N3CCOCC3)ncc1CC2", "values": [{"measurement": "EC50", "setting": "[8]", "result": "> 79.4 µM (not active)"}, {"measurement": "EC50", "setting": "[9]", "result": "> 79.4 µM (not active)"}, {"measurement": "EC50", "setting": "[10]", "result": "> 79.4 µM (not active)"}]}, {"smiles": "CC(=O)Nc1ccc(OCC(O)CNC2CCCC2)cc1", "note": "(configuration not stated)", "values": [{"measurement": "CC50", "setting": "[1]", "result": "> 40 µM (active)"}]}, {"smiles": "Cc1cccc(-n2ncc3c(N4CCOCC4)ncnc32)c1", "values": [{"measurement": "AC50", "setting": "[5]", "result": "3.92 µM (active)"}, {"measurement": "AC50", "setting": "HEK293", "result": "1.36 µM (active)"}, {"measurement": "CC50", "setting": "[11]", "result": "19.1 µM (active)"}, {"measurement": "AC50", "setting": "[12]", "result": "> 52 µM (inactive)"}, {"measurement": "AC50", "setting": "[6]", "result": "3.94 µM (active)"}, {"measurement": "AC50", "setting": "[7]", "result": "> 52 µM (inactive)"}]}, {"smiles": "O=C(NNc1ccc(O)cc1)c1ccc(Br)cc1", "values": [{"measurement": "EC50", "setting": "[13]", "result": "28.9 µM (active)"}, {"measurement": "AC50", "setting": "[14]", "result": "0.096 µM (active)"}, {"measurement": "IC50", "setting": "Genome polyprotein", "result": "> 100 µM (active)"}]}, {"smiles": "COc1ccc(-c2cc(-c3cccs3)c(C#N)c(SCC(=O)NCc3ccccc3OC)n2)cc1", "values": [{"measurement": "EC50", "setting": "[8]", "result": "13 µM (not active)"}, {"measurement": "EC50", "setting": "[9]", "result": "8.22 µM (active)"}, {"measurement": "EC50", "setting": "[10]", "result": "10.3 µM (not active)"}]}, {"smiles": "O=C(CSc1ncnc2c1nnn2Cc1ccccc1F)N1CCN(c2ccccc2)CC1", "values": [{"measurement": "EC50", "setting": "Protein RecA", "result": "5.75 µM (active)"}, {"measurement": "EC50", "setting": "[8]", "result": "> 79.4 µM (not active)"}, {"measurement": "EC50", "setting": "[9]", "result": "> 79.4 µM (not active)"}, {"measurement": "EC50", "setting": "[10]", "result": "> 79.4 µM (not active)"}, {"measurement": "AC50", "setting": "[15]", "result": "3.65 µM (active)"}]}]}
